For one experiment, the system named is hPMBC. As to the kind of experiment: Chymotrypsin-like ProteasomeGlo assay in hPBMC. Type of experiment: cell-based. To be noted: Homo sapiens; read-out: Pglo hPBMC. The gist of the method: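 IC50 derived from luminescent chymotrypsin-like proteasome activity (Suc-LLVY-Glo substrate plus luciferin detection reagent). Measured after 105 min compound exposure at 37 °C, 5% CO2. Cells were human B cells purified from buffy-coat PBMC.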

The test system of a further experiment is HT-29 cells. Description: CellTiter-Glo luminescent cell viability assay with HT-29 cells (72h incubation). In kind it is cell-based, human. The conditions noted are these: Homo sapiens, HT-29, HT29 cells, read-out: CTG HT29. The gist of the method:
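Viability read as CellTiter-Glo luminescence after 72 h compound exposure, with 10 μM staurosporine and DMSO as control wells. Seeding 400 cells per well, compound added 24 h post-plating; IC50 from curve fitting.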
Background: Cellular ATP, detected with luciferase, serves as a proxy for viable cell number.

The target in experiment [1] is T1, β5 subunit of the human constitutive proteasome (CPS) (Homo sapiens, UniProt P28074).
T1 construct: purchased Boston Biochem E-360
As to the kind of experiment: β5 inhibition assay, human constitutive proteasome (Suc-LLVY-AMC). Type of experiment: biochemical. The conditions noted are these: IC50 class, Suc-LLVY-AMC substrate. As to the method: The enzymatic activity of the β5 subunit of the human constitutive proteasome (CPS) is analyzed. In another assay, which differs from the assay of the human constitutive proteasome only in using the human immunoproteasome (IPS) the enzymatic activity of the β5 subunit of the human immunoproteasome (IPS) is analyzed. […] Inhibition is indicated as IC50 [nM] (“-”=not measured).

Results on 19 compounds are retold here after US20240415819A1, “MACROCYCLIC COMPOUNDS AS PROTEASOME SUBUNIT BETA TYPE-5 INHIBITORS” (Lead Discovery Center GmbH, priority 2021, published 2024).

Each structure is given as a SMILES string.

With `Cc1ccc2cc1CNC(=O)[C@H](CCc1ccccc1)NC(=O)[C@@H](NC(=O)CCc1ccc(Br)cc1)CC(=O)N1CCCC(CCO2)C1` (stereo partly drawn) [Compound 175, 3-(4-bromophenyl)-N-((9S,12S)-5^4-methyl-8,11,14-trioxo-9-phenethyl-4-oxa-7,10-diaza-1(3,1)-piperidina-5(1,3)-benzenacyclotetradecaphane-12-yl)propanamide], the IC50 (in the experiment with hPMBC; with HT-29 cells; in experiment [1]) was under 100 nM each time.
With `COc1ccccc1CC(=O)N[C@H]1CC(=O)N2CCCC(CCOc3ccc(C)c(c3)CNC(=O)[C@H](CCc3ccccc3)NC1=O)C2` (stereo partly drawn) [Compound 84, 2-(2-methoxyphenyl)-N-((9S,12S)-5^4-methyl-8,11,14-trioxo-9-phenethyl-4-oxa-7,10-diaza-1(3,1)-piperidina-5(1,3)-benzenacyclotetradecaphane-12-yl)acetamide], the IC50 (with hPMBC; in the experiment with HT-29 cells; in experiment [1]) was under 100 nM in each case.
Turning to `Cc1ccc2cc1CNC(=O)[C@H](CCc1ccccc1)NC(=O)[C@@H](NC(=O)OCc1ccccc1)CCCC(=O)N1CCCC(CCO2)C1` (stereo partly drawn) [Compound 195, benzyl ((9S,12S)-5^4-methyl-8,11,16-trioxo-9-phenethyl-4-oxa-7,10-diaza-1(3,1)-piperidina-5(1,3)-benzenacyclohexadecaphane-12-yl)carbamate], the IC50 (in the experiment on hPMBC; in the experiment on HT-29 cells; in experiment [1]) was under 100 nM in each case.
As to `CC(=O)N[C@H]1CCCC(=O)N2CCC2(C)COc2ccc(C)c(c2)CNC(=O)[C@H](CCc2ccccc2)NC1=O` (stereo partly drawn) [Compound 281, N-((8S,11S)-1^2,4^4-dimethyl-7,10,15-trioxo-8-phenethyl-3-oxa-6,9-diaza-1(2,1)-azetidina-4(1,3)-benzenacyclopentadecaphane-11-yl)acetamide], the values for the IC50 (in the experiment on hPMBC; in the experiment on HT-29 cells; in experiment [1]) were 1000 to 5000 nM, 100 to 500 nM and 1000 to 5000 nM, respectively.
Regarding `COc1cccc(CC(=O)N[C@H]2CC(=O)N3CCCC(CCOc4ccc(C)c(c4)CNC(=O)[C@H](CCc4ccccc4)NC2=O)C3)c1` (stereo partly drawn) [Compound 85, 2-(3-methoxyphenyl)-N-((9S,12S)-5^4-methyl-8,11,14-trioxo-9-phenethyl-4-oxa-7,10-diaza-1(3,1)-piperidina-5(1,3)-benzenacyclotetradecaphane-12-yl)acetamide], the IC50 (in the experiment on hPMBC; in the experiment with HT-29 cells; in experiment [1]) was under 100 nM each time.
With `CC(=O)N[C@H]1CCC(=O)NCCCCOc2ccc(C)c(c2)CNC(=O)[C@H](CCc2ccccc2)NC1=O` [Compound 171, N-((11S,14S)-1^4-methyl-8,12,15-trioxo-14-phenethyl-2-oxa-7,13,16-triaza-1(1,3)-benzenacycloheptadecaphane-11-yl)acetamide], the IC50 with hPMBC is under 100 nM; with HT-29 cells, 100 to 500 nM; in experiment [1], 100 to 500 nM.
With `Cc1ccc2cc1CNC(=O)[C@H](CCc1ccccc1)NC(=O)[C@@H](NC(=O)CCc1ccccc1-c1ccccc1)CC(=O)N1CCCC(CCO2)C1` (stereo partly drawn) [Compound 177], the IC50 (in the experiment on hPMBC; in the experiment with HT-29 cells; in experiment [1]) was under 100 nM in each case.
On to `Cc1ccc2cc1CNC(=O)[C@H](CCc1ccccc1)NC(=O)[C@@H](NC(=O)C1(C)CCNCC1)CC(=O)N1CCCC(CCO2)C1` (stereo partly drawn) [Compound 136, 4-methyl-N-((9S,12S)-5^4-methyl-8,11,14-trioxo-9-phenethyl-4-oxa-7,10-diaza-1(3,1)-piperidina-5(1,3)-benzenacyclotetradecaphane-12-yl)piperidine-4-carboxamide], for which the figures for the IC50 (with hPMBC; in the experiment with HT-29 cells; in experiment [1]) were under 100 nM, 100 to 500 nM and under 100 nM, respectively.
Regarding `Cc1ccc2cc1CNC(=O)[C@H](CCc1ccccc1)NC(=O)[C@@H](N)CC(=O)N1CCCC(CCO2)C1` (stereo partly drawn) [Compound 8, (9S,12S)-12-amino-5^4-methyl-9-phenethyl-4-oxa-7,10-diaza-1(3,1)-piperidina-5(1,3)-benzenacyclotetradecaphane-8,11,14-trione], the IC50 in the experiment on hPMBC was 100 to 500 nM; with HT-29 cells, 100 to 500 nM; in experiment [1], under 100 nM.
Consider `COc1ccc(CC(=O)N[C@H]2CC(=O)N3CCCC(CCOc4ccc(C)c(c4)CNC(=O)[C@H](CCc4ccccc4)NC2=O)C3)cc1` (stereo partly drawn) [Compound 83, 2-(4-methoxyphenyl)-N-((9S,12S)-5^4-methyl-8,11,14-trioxo-9-phenethyl-4-oxa-7,10-diaza-1(3,1)-piperidina-5(1,3)-benzenacyclotetradecaphane-12-yl)acetamide], for which the IC50 (in the experiment on hPMBC; with HT-29 cells; in experiment [1]) was under 100 nM each time.
As for `Cc1ccc2cc1CNC(=O)[C@H](CCc1ccccc1)NC(=O)[C@@H](NC(=O)Cc1cccc(N)c1)CC(=O)N1CCCC(CCO2)C1` (stereo partly drawn) [Compound 127, 2-(3-aminophenyl)-N-((9S,12S)-5^4-methyl-8,11,14-trioxo-9-phenethyl-4-oxa-7,10-diaza-1(3,1)-piperidina-5(1,3)-benzenacyclotetradecaphane-12-yl)acetamide], the IC50 (in the experiment with hPMBC; in the experiment on HT-29 cells; in experiment [1]) was under 100 nM in each case.
As for `COc1ccc(CC(=O)N[C@H]2CC(=O)N3CCCC(CCOc4ccc(C)c(c4)CNC(=O)[C@H](CCc4ccccc4)NC2=O)C3)cc1OC` (stereo partly drawn) [Compound 63, 2-(3,4-dimethoxyphenyl)-N-((9S,12S)-5^4-methyl-8,11,14-trioxo-9-phenethyl-4-oxa-7,10-diaza-1(3,1)-piperidina-5(1,3)-benzenacyclotetradecaphane-12-yl)acetamide], the IC50 (in the experiment with hPMBC; in the experiment on HT-29 cells; in experiment [1]) was under 100 nM in each case.
Regarding `Cc1nc2cc(CCC(=O)N[C@H]3CC(=O)N4CCCC(CCOc5ccc(C)c(c5)CNC(=O)[C@H](CCc5ccccc5)NC3=O)C4)ccc2[nH]1` (stereo partly drawn) [Compound 174, 3-(2-methyl-1H-benzo[d]imidazol-6-yl)-N-((9S,12S)-5^4-methyl-8,11,14-trioxo-9-phenethyl-4-oxa-7,10-diaza-1(3,1)-piperidina-5(1,3)-benzenacyclotetradecaphane-12-yl)propanamide], the IC50 (in the experiment on hPMBC; with HT-29 cells; in experiment [1]) was under 100 nM each time.
`Cc1ccc2cc1CNC(=O)[C@H](CCc1ccccc1)NC(=O)[C@@H](NC(=O)C1(N)COC1)CC(=O)N1CCCC(CCO2)C1` (stereo partly drawn) [Compound 158, 3-amino-N-((9S,12S)-5^4-methyl-8,11,14-trioxo-9-phenethyl-4-oxa-7,10-diaza-1(3,1)-piperidina-5(1,3)-benzenacyclotetradecaphane-12-yl)oxetane-3-carboxamide]: the IC50 (in the experiment with hPMBC; with HT-29 cells; in experiment [1]) was under 100 nM throughout.
For the compound `CC(=O)N[C@H]1CCC(=O)N2CCOC(CCOc3ccc(C)c(c3)CNC(=O)[C@H](CCc3ccccc3)NC1=O)C2` (stereo partly drawn) [Compound 143, N-((9S,12S)-5^4-methyl-8,11,15-trioxo-9-phenethyl-4-oxa-7,10-diaza-1(2,4)-morpholina-5(1,3)-benzenacyclopentadecaphane-12-yl)acetamide], the IC50 with hPMBC is under 100 nM; in the experiment with HT-29 cells it was 100 to 500 nM; in experiment [1], under 100 nM.
With `Cc1ccc2cc1CNC(=O)[C@H](CCc1ccccc1)NC(=O)[C@@H](NC(=O)CN1CCNCC1)CC(=O)N1CCCC(CCO2)C1` (stereo partly drawn) [Compound 126, N-((9S,12S)-5^4-methyl-8,11,14-trioxo-9-phenethyl-4-oxa-7,10-diaza-1(3,1)-piperidina-5(1,3)-benzenacyclotetradecaphane-12-yl)-2-(piperazin-1-yl)acetamide], the figures for the IC50 (in the experiment with hPMBC; in the experiment with HT-29 cells; in experiment [1]) were under 100 nM, 100 to 500 nM and under 100 nM, respectively.
In the case of `Cc1ccc2cc1CNC(=O)[C@H](CCc1ccccc1)NC(=O)[C@@H](NC(=O)C1CCN1)CC(=O)N1CCCC(CCO2)C1` (stereo partly drawn) [Compound 160, (2R)-N-((9S,12S)-5^4-methyl-8,11,14-trioxo-9-phenethyl-4-oxa-7,10-diaza-1(3,1)-piperidina-5(1,3)-benzenacyclotetradecaphane-12-yl)azetidine-2-carboxamide], the IC50 (in the experiment on hPMBC; in the experiment on HT-29 cells; in experiment [1]) was under 100 nM each time.
For the compound `CC(=O)N[C@H]1CC(=O)N2CCCC(CCOc3ccc(C)c(c3)CNC(=O)C(c3cnn(CCCC(=O)O)c3)NC1=O)C2` (stereo partly drawn) [Compound 568, 4-(4-((12S)-12-acetamido-5^4-methyl-8,11,14-trioxo-4-oxa-7,10-diaza-1(3,1)-piperidina-5(1,3)-benzenacyclotetradecaphane-9-yl)-1H-pyrazol-1-yl)butanoic acid], the results for the IC50 (in the experiment with hPMBC; with HT-29 cells; in experiment [1]) were under 100 nM, 100 to 500 nM and under 100 nM, respectively.
`Cc1ccc2cc1CNC(=O)[C@H](CCc1ccccc1)NC(=O)[C@@H](NC(=O)[C@@H](C)c1ccccc1)CC(=O)N1CCCC(CCO2)C1` (stereo partly drawn) [Compound 81, (2S)-N-((9S,12S)-5^4-methyl-8,11,14-trioxo-9-phenethyl-4-oxa-7,10-diaza-1(3,1)-piperidina-5(1,3)-benzenacyclotetradecaphane-12-yl)-2-phenylpropanamide]: the IC50 (with hPMBC; in the experiment with HT-29 cells; in experiment [1]) was under 100 nM in each case.
